According to patent US20110237605A1, “Molecular Crystal of (4-(1,8-Naphthyridin-2-YL)Piperidin-1-YL)Pyrimidine Derivative” (priority 2010, published 2011):

Assay: Physical (polymorph) stability of suspension to bead milling and autoclaving, followed by XRPD
Type: physicochemical
Method: The following experiment evidences such stability of the claimed molecular crystal.
A 30 mg/ml suspension of the compound having Formula I (referred to as “BOL-303050”) was made in PBS-0.15% Polysorbate 80 and put in a vial. The contents of the vial were milled by 1 mm zirconia milling beads for 5 times, 2 minutes each at 2400 rpm in a DAC 150 FV Speedmixer and shaken to suspend the drug. An aliquot was withdrawn for XRPD (see FIG. 4, suspension milled). The withdrawn aliquot was centrifuged and dried before XRPD scan.
The remainder of the vial contents was autoclaved at 121° c. for 30 minutes. After autoclaving another sample was removed for XRPD (see FIG. 4, suspension milled and autoclaved). Sample was centrifuged and dried before XRPD scan.
To the remaining sample, 1 mm zirconia milling beads were added and the sample was milled 5 times, for 2 minutes each at 2400 rpm in a DAC 150 FV Speedmixer. After bead milling, a sample was removed for XRPD (see FIG. 4, suspension milled, autoclaved then milled again). Sample was centrifuged and dried before XRPD scan.
The remainder was autoclaved at 121° C. for 30 minutes (see FIG. 4, suspension milled, autoclaved, milled again, then autoclaved). Sample was centrifuged and dried before XRPD scan.
Samples were compared to the XRPD spectrum of the original API sample.

effect of milling on drug polymorph by XRPD (1 mm zirconia milling beads, 5 times, 2 minutes each at 2400 rpm)	stability of crystal form, comparison of XRPD spectra (FIG. 4) (further milling and/or autoclaving)	SMILES	polymorphic change by XRPD on autoclaving (30 mg/ml suspension in PBS-0.15% Polysorbate 80, milled, autoclaved at 121° C. for 30 minutes (initial cycle))	effect of subsequent autoclaving on polymorph by XRPD (milled, autoclaved, milled again, then autoclaved at 121° C. for 30 minutes)
did not affect the drug polymorph	–	COc1ccc(S(=O)(=O)N[C@@H](CNc2nc(C)nc(N3CCC(c4ccc5c(n4)NCCC5)CC3)c2C)C(=O)O)cc1 [BOL-303050, (S)-3-(2,5-dimethyl-6-(4-(5,6,7,8-tetrahydro-1,8-naphthyridin-2-yl)piperidin-1-yl)pyrimidin-4-ylamino)-2-(4-methoxyphenylsulfonamido)propanoic acid]	polymorphic changes occurred only during the initial autoclave cycle	–
–	stable	COc1ccc(S(=O)(=O)N[C@@H](CNc2nc(C)nc(N3CCC(c4ccc5c(n4)NCCC5)CC3)c2C)C(=O)O)cc1 [claimed novel drug polymorph, (S)-3-(2,5-dimethyl-6-(4-(5,6,7,8-tetrahydro-1,8-naphthyridin-2-yl)piperidin-1-yl)pyrimidin-4-ylamino)-2-(4-methoxyphenylsulfonamido)propanoic acid]	–	did not affect the claimed novel drug polymorph
